{"source": "patent US8664276B2", "about": "“Stilbene analogs and methods of treating cancer” (University of Kentucky Research Foundation, priority 2011, dated 2014)", "key": {"MAT2A [1]": {"biological_target": "T1, MAT2A (Homo sapiens, UniProt P31153)", "experiment": "Cell based SAM and SAH analysis in LS174 colon cancer cells (LC-MS/MS)", "parameters": "endogenous in cells; host or cells: LS174T", "conditions": "10 μM of 4r versus 30 μM of resveratrol", "experimental": "(§1) SAM and SAH analysis by LC-MS/MS. The LC-MS/MS system consisted of two Varian ProStar 210 LC Pumps coupled with a Varian 1200L triple quadrupole mass spectrometer. The separation was performed on a Hypercarb column (50 mm×2.1 mm, […], Thermo Scientific #35003-052130). Gradient elution started with 98% solution A (0.1% formic acid in water), followed by an increase to 38% solution B (0.1% formic acid in acetonitrile) in 8 min. The column was than flushed with 90% B for 5 min and regenerated with 98% A for another 8 min. The flow rate was 0.25 mL/min. Between the 3rd and 11th min, the eluent was switched to the ion source of the mass spectrometer. The precursor product transitions for SAM (m/z 399→250), SAH (m/z 385→250) and [d-4]-SAH (m/z 389→136) were monitored. The optimized ion source parameters were: Capillary Voltage: 32 V for both SAM and SAH, Collision energy: 9 V and 7V for SAM and SAH, respectively, Needle voltage: 5000 V and the Shield voltage: 600V. Nitrogen was used as the drying gas at a temperature of 300° C. and the interface heater was set to 50° C. The drying gas and nebulizing gas were set to 20 and 50 psi, respectively.\nCell based SAM analysis. […] 5 ul of supernatants were analyzed by LC-MS/MS using a modified method based on a previous publication (see Krijt et al., J Chromatogr B Analyt Technol Biomed Life Sci 877, 2061-6, (2009)). […]"}, "MAT2A [2]": {"biological_target": "T1, MAT2A", "experiment": "In-vitro SAM synthesis by MAT2A (LC-MS/MS)", "type": "biochemical", "parameters": "GST (N); made in house", "experimental": "as §1\nSAM synthesis. […] purified MAT2A was incubated with 1 mM L-methionine and 1 mM ATP in […] reaction solution (50 mM Tris.Cl, 50 mM KCl, 10 mM MgCl2) for 5 min at 25° C. […] SAM was analyzed by LC-MS/MS. […]"}, "β-catenin target genes": {"tested_on": "β-catenin target genes", "experiment": "RT-PCR of β-catenin target genes in LS174 cells", "type": "cell-based", "conditions": "RT-PCR", "experimental": "RT-PCR. LS174 cells were treated with DMSO or Wnt inhibitors. After 36 h, RNA was isolated using the RNeasy kit (Qiagen). RT-PCR was performed as described in Zhang et al., Mol Cell Biol 2006, 26, 2055-2064. The following primers were used: β-actin: 5′-CAACCGCGAGAAGATGAC-3′ (SEQ ID NO:01), 5′-AGGAAGGCTGGAAGAGTG-3′ (SEQ ID NO:02); surivivin: 5′-[…]-3′ (SEQ ID NO:03), 5′-[…]-3′ (SEQ ID NO:04); c-Myc: 5′-TGGGCTGTGAGGAGGTTTG-3′ (SEQ ID NO:05), 5′-TATGTGGAGCGGCTTCTCG-3′ (SEQ ID NO:06); Axin2: 5′-[…]-3′ (SEQ ID NO:07), 5′-[…]-3′ (SEQ ID NO:08); TCF4: 5′-[…]-3′ (SEQ ID NO:09), 5′-[…]-3′ (SEQ ID NO:10); pygopus2: 5′-GGCCGGTCTGCAAATGAAG-3′ (SEQ ID NO:11), 5′-TCCACCTCCAGTGCTGTAG-3′ (SEQ ID NO:12); Lgr5: 5′-[…]-3′ (SEQ ID NO:13), 5′-[…]-3′ (SEQ ID NO:14); CD44: 5′-[…]-3′ (SEQ ID NO:15), 5′-[…]-3′ (SEQ ID NO:16); Ki67: 5′-[…]-3′ (SEQ ID NO:17), 5′-[…]-3′ (SEQ ID NO:18).\nCyclin B1 levels were decreased, whereas p21^WAF1/CIP1 levels increased, consistent with the fact that p21^WAF1/CIP1 expression is repressed by c-Myc. β-catenin levels were not affected by resveratrol. Next, the mRNA levels of β-catenin target genes were analyzed using RT-PCR. Expression of survivin, Lgr5, CD44, and c-Myc were decreased in resveratrol-treated cells."}, "LS174 CRC cells": {"tested_on": "LS174 CRC cells", "experiment": "CRC cell proliferation assay (Vi-Cell)", "type": "cell-based", "experimental": "Luciferase and cell proliferation assay. HEK293T cells were transiently transfected in a 12-well plate with 0.2 μg of the Super8xTOPFlash reporter and 0.05 μg of Renilla luciferase reporter. Culture medium was changed after 12 h. After 6 h, cells were treated with DMSO or Wnt inhibitors for 12 h, and then treated with 25 mM LiCl or Wnt conditioned medium. After 12 h, cells were harvested and luciferase activity measured by Dual-luciferase Reporter Assay System (Promega, Madison Wis.). All conditions were done in triplicate and each experiment was carried out at least two times. For cell proliferation assay, CRC cells were treated with DMSO or inhibitors for 2d and 4d. The cell numbers and viability were analyzed by Vi-Cell Cell Viability Analyzer.\nWestern blot and cell proliferation assay. The activity of fluorinated N,N-dialkylaminostilbenes (FIDAS or FIDAS agents) on Wnt signaling activity in cancer cells were analyzed by Western blot with antibodies against Wnt target genes, such as c-Myc, Axin2. The effects of FlDAS agents on cancer cell growth were analyzed using Cell Viability Analyzer (Beckman Coulter, Vi-Cell XR). These assays have been described previously (see Zhang et al., J. of Med. Chem. 54, 1288-1297 (2011))."}}}
{"smiles": "CN(C)c1ccc(/C=C/c2c(F)cccc2F)cc1", "note": "[4r, (E)-4-(2,6-Difluorostyryl)-N,N-dimethylaniline]", "values": [{"measurement": "MAT2A activity (SAM levels) in LS174 cells versus resveratrol", "setting": "MAT2A [1]", "result": "more significantly than 30 μM of resveratrol"}, {"measurement": "MAT2A activity in SAM synthesis", "setting": "MAT2A [2]", "result": "inhibit MAT2A activity"}, {"measurement": "transcription of TCF4 genes", "setting": "β-catenin target genes", "result": "inhibited"}, {"measurement": "transcription of Wnt target genes", "setting": "β-catenin target genes", "result": "strongly inhibited"}, {"measurement": "transcription of pygopus2 genes", "setting": "β-catenin target genes", "result": "no significant effects"}, {"measurement": "LS174 cell proliferation at nanomolar concentrations", "setting": "LS174 CRC cells; 0.1, 0.3 and 1 μM (FIG. 7A)", "result": "inhibited LS174 cell proliferation at nanomolar concentrations"}, {"measurement": "CRC cell growth inhibition compared with other compounds", "setting": "LS174 CRC cells; cell proliferation assay", "result": "more potent than compound 4e"}]}
